Test results as given in publication PMC10733463, “Berberine-microbiota interplay: orchestrating gut health through modulation of the gut microbiota and metabolic transformation into bioactive metabolites” (Frontiers in Pharmacology, 2023).

How the values were obtained:
[1] = Bodyweight of broilers fed berberine-supplemented diet; assay type: in vivo, Ross 308 broiler chickens; details: 21 days post-hatch, n = 12
Excerpt: The study was undertaken following the guidelines of the ethics committee of the Faculty of Veterinary Medicine and Bioscience Engineering, Ghent University, in accordance with the EU Directive 2010/63/EU. […] They were allotted into 4 groups, with three replicate pens per group each housing 8 chickens. The animals were not vaccinated. Water and commercial starter feed (day 1-12, FARM 1 Mash, Country's Best, […], Belgium) or grower (day 13-21, FARM 2 mash, Country's Best, […], Belgium) were provided ad libitum. […] At day 21, 4 birds per pen were weighted then euthanized by sodium pentobarbital injection for sampling. […] Additionally, ileal and caecal content samples were collected and stored at -20°C for berberine and berberine-derived metabolite quantification.

[2] = tested on: colonic microbiota; experiment: 16S rRNA gene sequencing, microbiota composition in the colon; assay type: in vivo, Ross 308 broiler chickens
[3] = tested on: B. coccoides (DSM 935); details: Blautia coccoides, 10 µg/mL, pH 6
[4] = UPLC-MS/MS quantification of berberine and metabolites in plasma; assay type: in vivo, Ross 308 broiler chickens; details: lowest berberine supplementation level (0.1 g/kg feed)
Excerpt: The study was undertaken following the guidelines of the ethics committee of the Faculty of Veterinary Medicine and Bioscience Engineering, Ghent University, in accordance with the EU Directive 2010/63/EU. One-day-old Ross 308 male broilers were obtained from a local hatchery and housed in pens on wood shavings. They were allotted into 4 groups, with three replicate pens per group each housing 8 chickens. The animals were not vaccinated. Water and commercial starter feed (day 1–12, FARM 1 Mash, Country’s Best, Versele Laga, Deinze, Belgium) or grower (day 13–21, FARM 2 mash, Country’s Best, Versele Laga, Deinze, Belgium) were provided ad libitum. The control group received the standard non-supplemented diets, whereas the chickens in other groups were fed the same feed supplemented with 0.1, 0.5 or 1 g berberine/kg feed throughout the whole trial period. At day 21, 4 birds per pen were weighted then euthanized by sodium pentobarbital injection for sampling. Individual jejunal, ileal, caecal and colonic contents were stored at −20°C for microbiota composition analysis (16S rRNA gene sequencing). Additionally, ileal and caecal content samples were collected and stored at −20°C for berberine and berberine-derived metabolite quantification. Duodenal tissue samples were collected and fixed in 4% phosphate buffered formaldehyde for histological analysis. Blood samples were collected in heparin tubes and centrifuged at 524 g for 10 min to recover the plasma fraction, which was further mixed with 17 mg/mL L-ascorbic acid for dihydroberberine stabilization, and stored at −20°C for berberine and berberine-derived metabolite quantification.
The column temperature was maintained at 25°C. The autosampler temperature was set at 10°C.
A 137.5 µL plasma sample containing 17 mg/mL L-ascorbic acid was used for sample extraction. The ascorbic acid solution was added to prevent oxidation of dihydroberberine to berberine during sample storage ([Feng et al., 2015]). The plasma sample was transferred to an OstroTM 96 well-plate (25 mg) (Waters). Subsequently, 50 µL Milli-Q water and 25 µL of an internal standard solution containing 100 ng/mL of both berberine-d6 and tetrahydropalmatine were added. A 640 µL volume of 1% (v/v) formic acid solution in acetonitrile (1/3 ratio) was added, followed by gentle mixing. Vacuum was applied on the Ostro™ plate for 5 min and the eluate was collected in a 2 mL square 96-well collector plate. The sample was transferred in a glass tube and evaporated at 40°C under a gentle stream of nitrogen in a Pierce (Rockford, United States) Reacti-Therm III™ Heating Module and Reacti-Vap™ III Module. The dried sample extract was reconstituted in 500 µL Milli-Q water, followed by injection of a 5 µL sample aliquot onto the UPLC-MS/MS apparatus. Quantification was based on the ratio of the analyte peak area compared to the peak area of the internal standard berberine-d6.
Calibration standards and quality control samples were prepared as follows: 137.5 µL of blank plasma stabilized with 17 mg/mL L-ascorbic acid were supplemented with 25 µL mixed working solutions of berberine and metabolites (except dihydroberberine) at different levels, 25 µL of dihydroberberine working solution, stabilized with 17 mg/mL L-ascorbic acid, at different levels and 25 µL of an internal standard solution containing 100 ng/mL of both berberine-d6 and tetrahydropalmatine. The calibration curve was in the 0.1–100 ng/mL range, including 0.1, 0.5, 1, 2.5, 5, 10, 25, […], 50 and 100 ng/mL levels.
The UPLC-MS/MS analysis method for the quantification of berberine and berberine-derived metabolites both in plasma and ileal/caecal intestinal content was validated to the guidelines of the European Medicines Agency, i.e., of the Committee for Veterinary Medicinal Products (EMEA/CVMP/VICH/463202/2009) and of the Committee for Medicinal Products for Human Use (EMEA/CHMP/EWP/192217/20), and in accordance with the EU Directive 2002/657/EC. […]

[5] = 0.1 g berberine/kg feed vs normal diet, 21 days, LinDA-normalized abundance
[6] = 0.1 g berberine/kg feed, 21 days
[7] = 0.5 g berberine/kg feed vs normal diet, 21 days, LinDA-normalized abundance
[8] = 0.5 g berberine/kg feed, 21 days
[9] = 1 g berberine/kg feed vs normal diet, 21 days, LinDA-normalized abundance

Structure (SMILES): COc1ccc2cc3[n+](cc2c1OC)CCc1cc2c(cc1-3)OCO2 [Berberine, Berberine chloride]
- Bodyweight ([1]; 0.1 g berberine/kg feed): 655 ± 76 g
- Bodyweight ([1]; 0.5 g berberine/kg feed): 703 ± 115 g
- Bodyweight ([1]; 1 g berberine/kg feed): 671 ± 55 g
- L2 FC Family_ Peptostreptococcaceae, 0.1 vs 0 [2, 5]: -1.21
- L2 FC GCA-900066575, 0.1 vs 0 [2, 5]: 3.13
- L2 FC Lachnospiraceae UCG-010, 0.1 vs 0 [2, 5]: 2.34
- L2 FC Romboutsia, 0.1 vs 0 [2, 5]: -0.31
- L2 FC Ruminococcaceae UCG-014, 0.1 vs 0 [2, 5]: 5.39
- L2 FC uncultured genus of Peptostreptococcaceae, 0.1 vs 0 [2, 5]: -1.31
- Mean relative abundance (%) Family_ Peptostreptococcaceae [2, 6]: 0.11%
- Mean relative abundance (%) GCA-900066575 [2, 6]: 0.59%
- Mean relative abundance (%) Lachnospiraceae UCG-010 [2, 6]: 0.06%
- Mean relative abundance (%) Romboutsia [2, 6]: 0.14%
- Mean relative abundance (%) Ruminococcaceae UCG-014 [2, 6]: 3.36%
- Mean relative abundance (%) uncultured genus of Peptostreptococcaceae [2, 6]: 13.82%
- Mean relative abundance of Peptostreptococcaceae [2, 6]: 14.07%
- L2FC of LinDA-normalized abundance of Peptostreptococcaceae ([2]; 0.1 vs 0 g berberine/kg feed): -0.79
- L2 FC Family_ Peptostreptococcaceae, 0.5 vs 0 [2, 7]: -2.31
- L2 FC GCA-900066575, 0.5 vs 0 [2, 7]: 1.10
- L2 FC Lachnospiraceae UCG-010, 0.5 vs 0 [2, 7]: 0.64
- L2 FC Romboutsia, 0.5 vs 0 [2, 7]: -1.42
- L2 FC Ruminococcaceae UCG-014, 0.5 vs 0 [2, 7]: 2.59
- L2 FC uncultured genus of Peptostreptococcaceae, 0.5 vs 0 [2, 7]: -1.92
- Mean relative abundance (%) Family_ Peptostreptococcaceae [2, 8]: 0.13%
- Mean relative abundance (%) GCA-900066575 [2, 8]: 0.53%
- Mean relative abundance (%) Lachnospiraceae UCG-010 [2, 8]: 0.03%
- Mean relative abundance (%) Romboutsia [2, 8]: 0.11%
- Mean relative abundance (%) Ruminococcaceae UCG-014 [2, 8]: 1.19%
- Mean relative abundance (%) uncultured genus of Peptostreptococcaceae [2, 8]: 15.49%
- Mean relative abundance of Peptostreptococcaceae [2, 8]: 15.73%
- L2FC of LinDA-normalized abundance of Peptostreptococcaceae ([2]; 0.5 vs 0 g berberine/kg feed): -0.94
- L2 FC Family_ Peptostreptococcaceae, 1 vs 0 [2, 9]: -6.62
- L2 FC GCA-900066575, 1 vs 0 [2, 9]: 2.34
- L2 FC Lachnospiraceae UCG-010, 1 vs 0 [2, 9]: 0.99
- L2 FC Romboutsia, 1 vs 0 [2, 9]: -6.45
- L2 FC Ruminococcaceae UCG-014, 1 vs 0 [2, 9]: 3.32
- L2 FC uncultured genus of Peptostreptococcaceae, 1 vs 0 [2, 9]: -9.04
- Mean relative abundance (%) Family_ Peptostreptococcaceae ([2]; 1 g berberine/kg feed, 21 days): 0.01%
- Mean relative abundance (%) GCA-900066575 ([2]; 1 g berberine/kg feed, 21 days): 0.65%
- Mean relative abundance (%) Lachnospiraceae UCG-010 ([2]; 1 g berberine/kg feed, 21 days): 0.06%
- Mean relative abundance (%) Romboutsia ([2]; 1 g berberine/kg feed, 21 days): 0.00%
- Mean relative abundance (%) Ruminococcaceae UCG-014 ([2]; 1 g berberine/kg feed, 21 days): 1.02%
- Mean relative abundance (%) uncultured genus of Peptostreptococcaceae ([2]; 1 g berberine/kg feed, 21 days): 0.50%
- Mean relative abundance of Peptostreptococcaceae ([2]; 1 g berberine/kg feed, 21 days): 0.51%
- L2FC of LinDA-normalized abundance of Peptostreptococcaceae ([2]; 1 vs 0 g berberine/kg feed): -8.67
- Observed number of OTUs ([2]; lowest concentration (0.1 g/kg feed), p = 0.026): significantly increased

Structure (SMILES): COc1ccc2cc3[n+](cc2c1O)CCc1cc2c(cc1-3)OCO2 [Berberrubine, berberrubine chloride]
- Log2(fold change) of metabolite response at 48 h, B. coccoides pure culture over berberine-medium [3]: 1.96
- Quantification in plasma [4]: could also not be quantified

Structure (SMILES): COc1cc2c(cc1O)CC[n+]1cc3c(OC)c(OC)ccc3cc1-2 [Jatrorrhizine, Jatrorrhizine chloride]
- Log2(fold change) of metabolite response at 48 h, B. coccoides pure culture over berberine-medium [3]: -2.05
- Quantification in plasma [4]: could also not be quantified
